Measured values taken from patent US12161722B2, “Bifunctional heterocyclic compound having BTK degradation function via ubiquitin proteasome pathway, and use thereof” (KOREA RESEARCH INSTITUTE OF CHEMICAL TECHNOLOGY, priority 2021, dated 2024).

The compounds below were run against T1, WT BTK protein (Homo sapiens, UniProt Q06187) (assay: BTK protein degradation assay (Western blotting), WT BTK). Settings: concentration range accounting for 50% degradation of WT BTK protein, TMD-8 or RAMOS cells, 24 hours.
T1 construct: measured for intracellular BTK protein levels by Western blotting; endogenous in cells; host or cells: TMD-8 or RAMOS cells
Format: cell-based
Experimental: TMD-8, RAMOS, or 293T BTK MUT (C481S) cells were treated with the synthesized compounds and measured for intracellular BTK protein levels by Western blotting. The protocol of the experiment using TMD-8 cells is as follows.
TMD-8 cells were resuspended in an RPMI1640 medium (Hyclone, SH30027.01, 10% FBS (Hyclone, SV30207.02), 1% penicillin-streptomycin (Welgene, LS 202-02) and the cell suspension was seeded at a density of 1×10^6 cells/mL in an amount of 1 mL per well into 12-well plates.
The 12-well plates were treated as follows. A 10 mM stock was 1/10 diluted in series with DMSO ([…]) to form final concentrations of 10, 1, 0.1, 0.01, 0.001, and 0.0001 mM. The compounds with such concentrations were applied to cells, followed by harvesting the cells 24 hours later. For a negative control, a 1/10 dilution of DMSO in the medium (3 mL DMSO+27 mL medium) was used.
The 1-mL cell culture in each well was passed many times through a pipette and then transferred into a 1.5-mL microtube before centrifugation (500 g, 5 min, 4° C.). The supernatant was discarded and the cell pellet was washed with PBS. After centrifugation (500 g, 5 min, 4° C.) again, the supernatant was discarded and the cell pellet was taken.
A lysis buffer was prepared as follows. RIPA buffer (Biosesang, RC2038-050-00)+0.5 mM PMSF (SIGMA, P7626)+1×Protease/Phosphatase Inhibitor (Cell signaling, 5872S) was added in an amount […] per well and left for 30 minutes on ice (vortexing at 0 and 30 minutes) before sonication (5 cycles of pulse for 10 seconds and rest for 30 seconds, 70% amplification). The supernatant obtained by centrifugation (15000 g, 15 min, 4° C.) was transferred into a new microtube. Cells in each well of 96-well plates were 1/2 diluted with the RIPA buffer and incubated at 37° C. for 30 minutes with […] of a 50:1 mixture of BCA reagents A and B in BCA Protein Assay Kit (iNtRON, 21071). After being cooled for 10 minutes, the 96-well plates were measured for absorbance at 562 nm on the BioTek, SYNERGY H1 microplate reader. Samples were prepared by protein quantification based on the absorbance measurements and then boiled at 70° C. for 10 minutes. The sample buffer used in the case was prepared by mixing a NuPAGE or a Bolt 4× sample buffer (Invitrogen) and its 10× sample reducing agent depending on the gel to be used, and protein dilution was made in a RIPI buffer.
The samples were loaded in the same amount into a NuPAGE or Bolt Bis-tris 4-12% gradient gel and allowed to run therein (200 V, 35 minutes). The separated proteins were transferred onto a […] NC membrane, using Trans-blot Turbo (BIO-RAD) (1.3 A constant, 25V limit, 15 minutes). The membrane was blocked at room temperature for 1 hour with skim milk or Intercept Blocking Buffer (LI-COR, 927-60001):0.1% TBST=1:1. The membrane was incubated with Anti BTK Rabbit (1:1,000 in 5% skim milk/0.2% TBST, size: 77 kDa, Cell signaling Technology) at 4° C. overnight O/N or at room temperature for 2 hours and with Anti GAPDH Rabbit (1:10,000 in 5% BSA/0.2% TBST, size: 36 kDa, GENETEX) and Anti β-actin mouse (1:10,000 in 5% BSA/0.2% TBST, RT, size: 43 kDa, GENETEX) at room temperature for 1 or 3 hours. Then, the membrane was washed three times with 0.5% TBST for 5 minutes each time before incubation with the second antibody Anti-Rabbit IgG (1:5,000 in 5% Skim milk/TBST, CST), IRDye® 800CW Goat anti-Rabbit IgG Secondary Antibody (1:10,000 in 5% skim/TBST, RT 45 min), or IRDye® 680RD Goat anti-Mouse IgG Secondary Antibody (1:10,000 in 5% skim/TBST, RT 45 min) for 45 minutes at room temperature in a rocker. The membrane was washed five times with 0.5% TBST for 5 minutes in each time, followed by detection with LI-COR, Odyssey. In this regard, the detection proceeded, as it was, for house-keeping genes while using SuperSignal West Pico PLUS Chemiluminescent Substrate or SuperSignal West femto Maximum Sensitivity Substrate for BTK detection. […]

T1 sequence (Q06187 whole entry): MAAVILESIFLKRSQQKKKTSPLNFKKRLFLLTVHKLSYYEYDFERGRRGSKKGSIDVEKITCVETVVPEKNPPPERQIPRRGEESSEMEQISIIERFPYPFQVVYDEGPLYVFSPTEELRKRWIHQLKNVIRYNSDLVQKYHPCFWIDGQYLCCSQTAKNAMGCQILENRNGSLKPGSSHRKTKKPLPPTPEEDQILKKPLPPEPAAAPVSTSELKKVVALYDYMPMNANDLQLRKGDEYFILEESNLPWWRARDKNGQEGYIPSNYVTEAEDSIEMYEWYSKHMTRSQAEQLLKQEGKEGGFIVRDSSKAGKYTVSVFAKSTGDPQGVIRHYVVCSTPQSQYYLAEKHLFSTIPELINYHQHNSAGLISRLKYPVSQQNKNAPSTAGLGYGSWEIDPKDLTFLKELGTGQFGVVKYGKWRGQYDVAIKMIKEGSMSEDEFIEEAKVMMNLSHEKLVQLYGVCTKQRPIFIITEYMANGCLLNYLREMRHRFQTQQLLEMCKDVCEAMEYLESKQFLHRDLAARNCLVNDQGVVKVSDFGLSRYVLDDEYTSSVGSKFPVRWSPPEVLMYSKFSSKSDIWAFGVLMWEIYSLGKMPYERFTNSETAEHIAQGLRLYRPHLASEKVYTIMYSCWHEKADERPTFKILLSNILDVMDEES

SMILES	DC50
Cc1cccc(C)c1Nc1nn(C)c2nc(Nc3ccc4c(c3)CN(C(=O)C3CCN(C(=O)COc5ccc6c(c5)C(=O)N(C5CCC(=O)NC5=O)C6=O)CC3)CC4)ncc12 (centres unmarked) [Compound 43, 5-(2-(4-(7-((3-((2,6-Dimethylphenyl)amino)-1-methyl-1H-pyrazolo[3,4-d]pyrimidin-6-yl)amino)-1,2,3,4-tetrahydroisoquinoline-2-carbonyl)piperidin-1-yl)-2-oxoethoxy)-2-(2,6-dioxopiperidin-3-yl)isoindoline-1,3-dione]	0.1 to 10 nM
Cc1cccc(C)c1Nc1nn(C)c2nc(Nc3ccc4c(c3)CN(CC3CN(c5ccc6c(c5)C(=O)N(C5CCC(=O)NC5=O)C6=O)C3)CC4)ncc12 (centres unmarked) [Compound 47, 5-(3-((7-((3-((2,6-Dimethylphenyl)amino)-1-methyl-1H-pyrazolo[3,4-d]pyrimidin-6-yl)amino)-3,4-dihydroisoquinolin-2 (1H)-yl)methyl)azetidin-1-yl)-2-(2,6-dioxopiperidin-3-yl)isoindoline-1,3-dione]	0.1 to 10 nM
Cc1cccc(C)c1Nc1nn(C)c2nc(Nc3ccc4c(c3)CN(CC3CN(C(=O)COc5ccc6c(c5)C(=O)N(C5CCC(=O)NC5=O)C6=O)C3)CC4)ncc12 (centres unmarked) [Compound 49, 5-(2-(3-((7-((3-((2,6-Dimethylphenyl)amino)-1-methyl-1H-pyrazolo[3,4-d]pyrimidin-6-yl)amino)-3,4-dihydroisoquinolin-2 (1H)-yl)methyl)azetidin-1-yl)-2-oxoethoxy)-2-(2,6-dioxopiperidin-3-yl)isoindoline-1,3-dione]	10 to 1000 nM
Cc1cccc(C)c1Nc1nn(C)c2nc(Nc3ccc4c(c3)CN(CC3CCN(CC5CN(c6ccc7c(c6)C(=O)N(C6CCC(=O)NC6=O)C7=O)C5)CC3)CC4)ncc12 (centres unmarked) [Compound 50, 5-(3-((4-((7-((3-((2,6-Dimethylphenyl)amino)-1-methyl-1H-pyrazolo[3,4-d]pyrimidin-6-yl)amino)-3,4-dihydroisoquinolin-2 (1H)-yl)methyl)piperidin-1-yl)methyl)azetidin-1-yl)-2-(2,6-dioxopiperidin-3-yl)isoindoline-1,3-dione]	10 to 1000 nM
Cc1cccc(C)c1Nc1nn(C)c2nc(Nc3ccc4c(c3)CN(CC3CN(C(=O)CNc5ccc6c(c5)C(=O)N(C5CCC(=O)NC5=O)C6=O)C3)CC4)ncc12 (centres unmarked) [Compound 51, 5-((2-(3-((7-((3-((2,6-Dimethylphenyl)amino)-1-methyl-1H-pyrazolo[3,4-d]pyrimidin-6-yl)amino)-3,4-dihydroisoquinolin-2 (1H)-yl)methyl)azetidin-1-yl)-2-oxoethyl)amino)-2-(2,6-dioxopiperidin-3-yl)isoindoline-1,3-dione]	0.1 to 10 nM
Cc1cccc(C)c1Nc1nn(C)c2nc(Nc3ccc4c(c3)CN(CC3CCN(C(=O)CNc5ccc6nnn(C7CCC(=O)NC7=O)c(=O)c6c5)CC3)CC4)ncc12 (centres unmarked) [Compound 52, 3-(6-((2-(4-((7-((3-((2,6-Dimethylphenyl)amino)-1-methyl-1H-pyrazolo[3,4-d]pyrimidin-6-yl)amino)-3,4-dihydroisoquinolin-2 (1H)-yl)methyl)piperidin-1-yl)-2-oxoethyl)amino)-4-oxobenzo[d][1,2,3]triazin-3 (4H)-yl)piperidin-2,6-one]	0.1 to 10 nM
Cc1cccc(C)c1Nc1nn(C)c2nc(Nc3ccc4c(c3)CN(CC3CCN(C(=O)CCc5cccc6c5CN(C5CCC(=O)NC5=O)C6=O)CC3)CC4)ncc12 (centres unmarked) [Compound 64, 3-(4-(3-(4-((7-((3-((2,6-Dimethylphenyl)amino)-1-methyl-1H-pyrazolo[3,4-d]pyrimidin-6-yl)amino)-3,4-dihydroisoquinolin-2 (1H)-yl)methyl)piperidin-1-yl)-3-oxopropyl)-1-oxoisoindolin-2-yl)piperidin-2,6-one]	0.1 to 10 nM
Cc1cccc(C)c1Nc1nn(C)c2nc(Nc3ccc4c(c3)CN(C(=O)C3CCN(c5ccc6c(=O)n(C7CCC(=O)NC7=O)nnc6c5)CC3)CC4)ncc12 (centres unmarked) [Compound 69, 3-(7-(4-(7-((3-((2,6-Dimethylphenyl)amino)-1-methyl-1H-pyrazolo[3,4-d]pyrimidin-6-yl)amino)-1,2,3,4-tetrahydroisoquinoline-2-carbonyl)piperidin-1-yl)-4-oxobenzo[d][1,2,3]triazin-3 (4H)-yl)piperidin-2,6-one]	10 to 1000 nM

The next lines start with the values.

DC50	SMILES
0.1 to 10 nM	Cc1cccc(C)c1Nc1nn(C)c2nc(Nc3ccc4c(c3)CN(C(=O)C3CCN(C(=O)CN5CCN(c6ccc7c(c6)C(=O)N(C6CCC(=O)NC6=O)C7=O)CC5)CC3)CC4)ncc12 (centres unmarked) [Compound 44, 5-(4-(2-(4-(7-((3-((2,6-Dimethylphenyl)amino)-1-methyl-1H-pyrazolo[3,4-d]pyrimidin-6-yl)amino)-1,2,3,4-tetrahydroisoquinoline-2-carbonyl)piperidin-1-yl)-2-oxoethyl)piperazin-1-yl)-2-(2,6-dioxopiperidin-3-yl)isoindoline-1,3-dione]
0.1 to 10 nM	Cc1cccc(C)c1Nc1nn(C)c2nc(Nc3ccc4c(c3)CN(C(=O)C3CCN(C(=O)CNc5ccc6c(c5)C(=O)N(C5CCC(=O)NC5=O)C6=O)CC3)CC4)ncc12 (centres unmarked) [Compound 45, 5-((2-(4-(7-((3-((2,6-Dimethylphenyl)amino)-1-methyl-1H-pyrazolo[3,4-d]pyrimidin-6-yl)amino)-1,2,3,4-tetrahydroisoquinoline-2-carbonyl)piperidin-1-yl)-2-oxoethyl)amino)-2-(2,6-dioxopiperidin-3-yl)isoindoline-1,3-dione]
0.1 to 10 nM	Cc1cccc(C)c1Nc1nn(C)c2nc(Nc3ccc4c(c3)CN(CC3CCN(C(=O)COc5ccc6nnn(C7CCC(=O)NC7=O)c(=O)c6c5)CC3)CC4)ncc12 (centres unmarked) [Compound 48, 3-(6-(2-(4-((7-((3-((2,6-Dimethylphenyl)amino)-1-methyl-1H-pyrazolo[3,4-d]pyrimidin-6-yl)amino)-3,4-dihydroisoquinolin-2 (1H)-yl)methyl)piperidin-1-yl)-2-oxoethoxy)-4-oxobenzo[d][1,2,3]triazin-3 (4H)-yl)piperidin-2,6-one]
10 to 1000 nM	Cc1cccc(C)c1Nc1nn(C)c2nc(Nc3ccc4c(c3)CN(C(=O)C3CCN(c5ccc6c(c5)C(=O)N(C5CCC(=O)NC5=O)C6=O)C3)CC4)ncc12 (centres unmarked) [Compound 66]
10 to 1000 nM	Cc1cccc(C)c1Nc1nn(C)c2nc(Nc3ccc4c(c3)CN(C(=O)C3CCN(C(=O)C5CCN(c6ccc7c(c6)C(=O)N(C6CCC(=O)NC6=O)C7=O)CC5)C3)CC4)ncc12 (centres unmarked) [Compound 67, 5-(4-(3-(7-((3-((2,6-Dimethylphenyl)amino)-1-methyl-1H-pyrazolo[3,4-d]pyrimidin-6-yl)amino)-1,2,3,4-tetrahydroisoquinoline-2-carbonyl)pyrrolidine-1-carbonyl)piperidin-1-yl)-2-(2,6-dioxopiperidin-3-yl)isoindoline-1,3-dione]
10 to 1000 nM	Cc1cccc(C)c1Nc1nn(C)c2nc(Nc3ccc4c(c3)CN(C(=O)C3CCN(C(=O)CNc5ccc6c(=O)n(C7CCC(=O)NC7=O)nnc6c5)CC3)CC4)ncc12 (centres unmarked) [Compound 68, 3-(7-((2-(4-(7-((3-((2,6-Dimethylphenyl)amino)-1-methyl-1H-pyrazolo[3,4-d]pyrimidin-6-yl)amino)-1,2,3,4-tetrahydroisoquinoline-2-carbonyl)piperidin-1-yl)-2-oxoethyl)amino)-4-oxobenzo[d][1,2,3]triazin-3 (4H)-yl)piperidin-2,6-one]
